15 compounds from patent publication US8802661B2, “C-28 amides of modified C-3 betulinic acid derivatives as HIV maturation inhibitors” (priority 2010, dated 2014) can be followed below.

The structures appear in SMILES notation. Where a name gives a salt, the structure may show the parent alone. Some results are limits rather than exact numbers.

In the assay the test system is recombinant NL4-3 virus (Renilla luciferase in nef, Gag P373S). In words: HIV Cell Culture Assay (luciferase reporter virus in MT-2 cells). It counts as cell-based. The conditions noted are these: NL43, read-out: EC50 Group. Put shortly: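 Cells grown in serum-supplemented RPMI were exposed to graded inhibitor concentrations during a 4-5 day infection. Antiviral effect was then derived from luminescence after adding a combined lysis and dual-luciferase substrate mixture to each well.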
One may read the EC50 as the concentration that produces a half-maximal response. Take `C=C(C)[C@@H]1CC[C@]2(C(=O)NCc3ccncc3)CC[C@]3(C)[C@H](CC[C@@H]4[C@@]5(C)CC=C(c6ccc(C(=O)O)cc6)C(C)(C)[C@@H]5CC[C@]43C)[C@@H]12` [Example 28, 4-((1R,3aS,5aR,5bR,7aR,11aS,11bR,13aR,13bR)-5a,5b,8,8,11a-pentamethyl-1-(prop-1-en-2-yl)-3a-(pyridin-4-ylmethylcarbamoyl)-2,3,3a,4,5,5a,5b,6,7,7a,8,11,11a,11b,12,13,13a,13b-octadecahydro-1H-cyclopenta[a]chrysen-9-yl)benzoic acid]: the EC50 was less than 100 nM.
With `C=C(C)[C@@H]1CC[C@]2(C(=O)NCC(c3cccnc3)N(C)C)CC[C@]3(C)[C@H](CC[C@@H]4[C@@]5(C)CC=C(c6ccc(C(=O)O)cc6)C(C)(C)[C@@H]5CC[C@]43C)[C@@H]12` (stereo partly drawn) [Example 35, 4-((1R,3aS,5aR,5bR,7aR,11aS,11bR,13aR,13bR)-3a-(2-(dimethylamino)-2-(pyridin-3-yl)ethylcarbamoyl)-5a,5b,8,8,11a-pentamethyl-1-(prop-1-en-2-yl)-2,3,3a,4,5,5a,5b,6,7,7a,8,11,11a,11b,12,13,13a,13b-octadecahydro-1H-cyclopenta[a]chrysen-9-yl)benzoic acid], the EC50 is less than 100 nM.
Consider `C=C(C)[C@@H]1CC[C@]2(C(=O)N3CCN(CCO)CC3)CC[C@]3(C)[C@H](CC[C@@H]4[C@@]5(C)CC=C(c6ccc(C(=O)O)cc6)C(C)(C)[C@@H]5CC[C@]43C)[C@@H]12` [Example 13, 4-((1R,3aS,5aR,5bR,7aR,11aS,11bR,13aR,13bR)-3a-(4-(2-hydroxyethyl)piperazine-1-carbonyl)-5a,5b,8,8,11a-pentamethyl-1-(prop-1-en-2-yl)-2,3,3a,4,5,5a,5b,6,7,7a,8,11,11a,11b,12,13,13a,13b-octadecahydro-1H-cyclopenta[a]chrysen-9-yl)benzoic acid, TFA], for which the EC50 was less than 100 nM.
Under `C=C(C)[C@@H]1CC[C@]2(C(=O)NCCN3CCS(=O)(=O)CC3)CC[C@]3(C)[C@H](CC[C@@H]4[C@@]5(C)CC=C(c6ccc(C(=O)O)cc6)C(C)(C)[C@@H]5CC[C@]43C)[C@@H]12` [Example 106, 4-((1R,3aS,5aR,5bR,7aR,11aS,11bR,13aR,13bR)-3a-((2-(1,1-dioxido-4-thiomorpholinyl)ethyl)carbamoyl)-1-isopropenyl-5a,5b,8,8,11a-pentamethyl-2,3,3a,4,5,5a,5b,6,7,7a,8,11,11a,11b,12,13,13a,13b-octadecahydro-1H-cyclopenta[a]chrysen-9-yl)benzoic acid] stands less than 100 nM.
In the case of `C=C(C)[C@@H]1CC[C@]2(C(=O)NCC(O)C(=O)O)CC[C@]3(C)[C@H](CC[C@@H]4[C@@]5(C)CC=C(c6ccc(C(=O)O)cc6)C(C)(C)[C@@H]5CC[C@]43C)[C@@H]12` (stereo partly drawn) [Example 79, 4-((1R,3aS,5aR,5bR,7aR,11aS,11bR,13aR,13bR)-3a-(2-carboxy-2-hydroxyethylcarbamoyl)-5a,5b,8,8,11a-pentamethyl-1-(prop-1-en-2-yl)-2,3,3a,4,5,5a,5b,6,7,7a,8,11,11a,11b,12,13,13a,13b-octadecahydro-1H-cyclopenta[a]chrysen-9-yl)benzoic acid], the EC50 is less than 100 nM.
For `C=C(C)[C@@H]1CC[C@]2(C(=O)NCCC(C)C)CC[C@]3(C)[C@H](CC[C@@H]4[C@@]5(C)CC=C(c6ccc(C(=O)O)cc6)C(C)(C)[C@@H]5CC[C@]43C)[C@@H]12` [Example 129, 4-((1R,3aS,5aR,5bR,7aR,11aS,11bR,13aR,13bR)-3a-(isopentylcarbamoyl)-5a,5b,8,8,11a-pentamethyl-1-(prop-1-en-2-yl)-2,3,3a,4,5,5a,5b,6,7,7a,8,11,11a,11b,12,13,13a,13b-octadecahydro-1H-cyclopenta[a]chrysen-9-yl)benzoic acid], the EC50 was less than 100 nM.
As for `C=C(C)[C@@H]1CC[C@]2(C(=O)NCCN(CC(=O)O)CC(=O)O)CC[C@]3(C)[C@H](CC[C@@H]4[C@@]5(C)CC=C(c6ccc(C(=O)O)cc6)C(C)(C)[C@@H]5CC[C@]43C)[C@@H]12` [Example 88, 2,2′-(2-((1R,3aS,5aR,5bR,7aR,11aS,11bR,13aR,13bR)-9-(4-carboxyphenyl)-5a,5b,8,8,11a-pentamethyl-1-(prop-1-en-2-yl)-2,3,3a,4,5,5a,5b,6,7,7a,8,11,11a,11b,12,13,13a,13b-octadecahydro-1H-cyclopenta[a]chrysene-3a-carboxamido)ethylazanediyl)diacetic acid], the EC50 is greater than 100 nM.
On to `C=C(C)[C@@H]1CC[C@]2(C(=O)NCCN(C)CC(=O)O)CC[C@]3(C)[C@H](CC[C@@H]4[C@@]5(C)CC=C(c6ccc(C(=O)O)cc6)C(C)(C)[C@@H]5CC[C@]43C)[C@@H]12` [Example 80, 4-((1R,3aS,5aR,5bR,7aR,11aS,11bR,13aR,13bR)-3a-(2-((carboxymethyl)(methyl)amino)ethylcarbamoyl)-5a,5b,8,8,11a-pentamethyl-1-(prop-1-en-2-yl)-2,3,3a,4,5,5a,5b,6,7,7a,8,11,11a,11b,12,13, 13a,13b-octadecahydro-1H-cyclopenta[a]chrysen-9-yl)benzoic acid], for which the EC50 is less than 100 nM.
With `C=C(C)[C@@H]1CC[C@]2(C(=O)NCCCNC(C)=O)CC[C@]3(C)[C@H](CC[C@@H]4[C@@]5(C)CC=C(c6ccc(C(=O)O)cc6)C(C)(C)[C@@H]5CC[C@]43C)[C@@H]12` [Example 53, 4-((1R,3aS,5aR,5bR,7aR,11aS,11bR,13aR,13bR)-3a-(3-acetamidopropylcarbamoyl)-5a,5b,8,8,11a-pentamethyl-1-(prop-1-en-2-yl)-2,3,3a,4,5,5a,5b,6,7,7a,8,11,11a,11b,12,13,13a,13b-octadecahydro-1H-cyclopenta[a]chrysen-9-yl)benzoic acid], the concentration giving a half-maximal response (EC50) was less than 100 nM.
Next, `C=C(C)[C@@H]1CC[C@]2(C(=O)NCCN3CCC(F)(F)CC3)CC[C@]3(C)[C@H](CC[C@@H]4[C@@]5(C)CC=C(c6ccc(C(=O)O)cc6)C(C)(C)[C@@H]5CC[C@]43C)[C@@H]12` [Example 118, 4-((1R,3aS,5aR,5bR,7aR,11aS,11bR,13aR,13bR)-3a-(2-(4,4-difluoropiperidin-1-yl)ethylcarbamoyl)-5a,5b,8,8,11a-pentamethyl-1-(prop-1-en-2-yl)-2,3,3a,4,5,5a,5b,6,7,7a,8,11,11a,11b,12,13,13a,13b-octadecahydro-1H-cyclopenta[a]chrysen-9-yl)benzoic acid]: less than 100 nM; `C=C(C)[C@@H]1CC[C@]2(C(=O)NCC(O)CO)CC[C@]3(C)[C@H](CC[C@@H]4[C@@]5(C)CC=C(c6ccc(C(=O)O)cc6)C(C)(C)[C@@H]5CC[C@]43C)[C@@H]12` (stereo partly drawn) [Example 71, 4-((1R,3aS,5aR,5bR,7aR,11aS,11bR,13aR,13bR)-3a-(2,3-dihydroxypropylcarbamoyl)-5a,5b,8,8,11a-pentamethyl-1-(prop-1-en-2-yl)-2,3,3a,4,5,5a,5b,6,7,7a,8,11,11a,11b,12,13,13a,13b-octadecahydro-1H-cyclopenta[a]chrysen-9-yl)benzoic acid]: less than 100 nM.
As for `C=C(C)[C@@H]1CC[C@]2(C(=O)NCCN(CCC)CCC(=O)O)CC[C@]3(C)[C@H](CC[C@@H]4[C@@]5(C)CC=C(c6ccc(C(=O)O)cc6)C(C)(C)[C@@H]5CC[C@]43C)[C@@H]12` [Example 93, 4-((1R,3aS,5aR,5bR,7aR,11aS,11bR,13aR,13bR)-3a-(2-((2-carboxyethyl)(propyl)amino)ethylcarbamoyl)-5a,5b,8,8,11a-pentamethyl-1-(prop-1-en-2-yl)-2,3,3a,4,5,5a,5b,6,7,7a,8,11,11a,11b,12,13,13a,13b-octadecahydro-1H-cyclopenta[a]chrysen-9-yl)benzoic acid], the EC50 was less than 100 nM.
Next, `C=C(C)[C@@H]1CC[C@]2(C(=O)NCc3ccc(OC)cc3)CC[C@]3(C)[C@H](CC[C@@H]4[C@@]5(C)CC=C(c6ccc(C(=O)O)cc6)C(C)(C)[C@@H]5CC[C@]43C)[C@@H]12` [Example 15, 4-((1R,3aS,5aR,5bR,7aR,11aS,11bR,13aR,13bR)-3a-(4-methoxybenzylcarbamoyl)-5a,5b,8,8,11a-pentamethyl-1-(prop-1-en-2-yl)-2,3,3a,4,5,5a,5b,6,7,7a,8,11,11a,11b,12,13,13a,13b-octadecahydro-1H-cyclopenta[a]chrysen-9-yl)benzoic acid]: less than 100 nM; `C=C(C)[C@@H]1CC[C@]2(C(=O)NCCCN3CCS(=O)(=O)CC3)CC[C@]3(C)[C@H](CC[C@@H]4[C@@]5(C)CC=C(c6ccc(C(=O)O)c(F)c6)C(C)(C)[C@@H]5CC[C@]43C)[C@@H]12` [Example 105, 4-((1R,3aS,5aR,5bR,7aR,11aS,11bR,13aR,13bR)-3a-((3-(1,1-dioxido-4-thiomorpholinyl)propyl)carbamoyl)-1-isopropenyl-5a,5b,8,8,11a-pentamethyl-2,3,3a,4,5,5a,5b,6,7,7a,8,11,11a,11b,12,13,13a,13b-octadecahydro-1H-cyclopenta[a]chrysen-9-yl)-2-fluorobenzoic acid]: less than 100 nM; `C=C(C)[C@@H]1CC[C@]2(C(=O)N(C)CCO)CC[C@]3(C)[C@H](CC[C@@H]4[C@@]5(C)CC=C(c6ccc(C(=O)O)cc6)C(C)(C)[C@@H]5CC[C@]43C)[C@@H]12` [Example 23, 4-((1R,3aS,5aR,5bR,7aR,11aS,11bR,13aR,13bR)-3a-((2-hydroxyethyl)(methyl)carbamoyl)-5a,5b,8,8,11a-pentamethyl-1-(prop-1-en-2-yl)-2,3,3a,4,5,5a,5b,6,7,7a,8,11,11a,11b,12,13,13a,13b-octadecahydro-1H-cyclopenta[a]chrysen-9-yl)benzoic acid]: less than 100 nM.
